According to patent publication US10919896B2, “Preparation and uses of pyrimidinone derivatives” (Cancer Research Technology Limited, priority 2016, dated 2021):
Counter-ions that a name gives are not always drawn.

Assays:
Cdc7/Dbf4 = Cdc7/Dbf4 (Homo sapiens, UniProt O00311); assay: Cdc7 Biochemical Assay Method 3: Cdc7/Dbf4 Enzyme TR-FRET Assay measuring pS40MCM2; details: 1 μM ATP, read-out: Biochemical Method 3 (pIC50) (converted)
Procedure: This protocol describes a method for assaying a compounds' ability to inhibit Cdc7 activity by measuring pS40MCM2 levels in a Cdc7/Dbf4 Enzyme TR-FRET Assay.
2.5 nM Cdc7/Dbf4 was incubated with 100 nM of biotin-labelled peptide 35-TDALTS(pS)PGRDLP in the presence of 1 μM ATP at 25° C. for 120 minutes. The phosphorylation of the peptide was detected using TR-FRET. Anti-Mcm2 (pS40) antibody, Terbium anti-rabbit secondary antibody and Streptavidin-Alexa Fluor488 form the detection system.

Cdc7/ASK = Cdc7/ASK (Homo sapiens, UniProt O00311); assay: Cdc7 Biochemical Assay Method 1: 384 well ELISA, whole protein substrate MCM2, antibody against Phospho MCM2 (S53); design: purchased; details: 2 μM ATP, read-out: Biochemical Method 1 (pIC50) (converted)
In short: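 MCM2 protein substrate was coated on nickel-chelate plates, then Cdc7/ASK was added with 2 μM ATP in 50 mM Tris-HCl pH 8.5, 10 mM MgCl2, 1 mM DTT, 4% DMSO, 90 min at room temperature. Phospho-MCM2 (S53) was detected by ELISA with an AP secondary and PNPP absorbance. IC50 was derived from % inhibition versus no-compound and no-enzyme controls.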

[1] = system: Cdc7 (pS53MCM2 levels in HCT116 cells); assay: Cdc7 Cell Pharmacodynamics Assay Method 1: pS53MCM2 levels in HCT116 cells, 6 hours; assay type: cell-based; details: for EC50: Homo sapiens, HCT-116, 6 h, read-out: Biomarker Method 1 (pEC50) (converted)
From the text: This protocol describes a method to investigate the inhibition of Cdc7 activity of compounds by measuring pS53MCM2 levels in cells after treatment.
• HCT116 cells (wild type P53 positive) • McCoys 5A media (PAA Laboratories Ltd, E15-022) • 10% FCS (Sera Laboratories International Ltd, EU000F Batch:108005) • 100× L-Glutamine (Invitrogen, 25030-024) • D-PBS without CaCl2 and MgCl2 (Invitrogen, ref 14190-094) • Trypsin/EDTA (Invitrogen 25300-054) • 2% BSA in PBS • Cell Extraction Buffer (Invitrogen FNN0011) • Protease inhibitor cocktail (Sigma P-2714) • PMSF 0.3M stock in DMSO (Sigma P7626) • Antibody-rabbit pMCM2 Ser53 (Bethyl #A300-756A) • Antibody-goat MCM2 (Bethyl #A300-122A) • Antibody-goat Anti Rabbit IgG HRP (Perbio Science UK Ltd 31462) • 1×PBS • FACE Wash buffer (0.02% Triton X100 in 1×PBS) • SuperSignal ELISA Pico Chemiluminescent Substrate (Perbio Science UK Ltd 37070) Method • 72 hours prior to the start of the experiment plate 1×10^6 HCT 116 cells in a 150 cm^2 flask in complete McCoys 5A media (+10% FCS+1× L-glutamine). • Plate 20,000 HCT116 cells per well in standard TC treated 96 well plate in 100 μL complete McCoys 5A media. • Allow cells to settle overnight in incubator set at 37° C. and 5% CO2. • Remove intermediate plate from fridge and place at 37° C. overnight to allow to equilibrate. • Cell treatment: cell assay plate 100 μL; daughter to cell transfer volume 3.33 μL; daughter volume 45 μL; mother plate to daughter volume 5 μL. • Once all cells are treated remove the cells to the incubator and incubate for 6 hours. • Dilute the capture antibody (total MCM2#A300-122A) 1 in 250 in the required volume of PBS (5 mL per assay plate) and add 50 μL to each well of a Hybond plate excluding wells 12E to 12H. In these wells add 50 μL PBS. Seal the plate and incubate at room temperature for a minimum of 2 hours. • Defrost aliquot of Invitrogen Cell Extraction Buffer (FNN0011) on ice and supplement with appropriate volume of both Sigma protease inhibitor cocktail (P-2714) and PMSF (final conc 1 mM from a 1 M stock in DMSO). • After the 6 hour cell treatment time tap out the media from the assay plates and place them in the −70° C. freezer for at least 5 minutes. • Remove plates from freezer and add 20 μL of ice cold complete lysis buffer on ice. Incubate cells for 30 minutes at 4° C. • Add 80 μL per well 2% BSA. • Transfer 80 μL from the lysis plate to the same wells in the capture/ELISA plate. Cover with plate seal and incubate plates overnight at 4° C. • Wash plates with PBS, remove any residual remaining liquid and add 50 μL per well of pMCM2 Ser53 antibody (#A300-756A) diluted 1 in 100 in 2% BSA. Cover plate and incubate at room temperature for 2 hours with gentle shaking. • Wash plates with PBS, remove any residual remaining liquid and Incubate with 50 μL goat anti rabbit antibody (1 in 800 dilution in 2% BSA) for 1 hour at room temperature. • Wash plates with PBS, remove any residual remaining liquid and add 50 μL mixed SuperSignal Pico substrate. • Incubate each plate for 5 minutes at room temperature shielding the plates from direct light (with a cover plate). Read plates with the luminescent detection. Method 2A and 2B

Chain of Cdc7/ASK (O00311 whole entry): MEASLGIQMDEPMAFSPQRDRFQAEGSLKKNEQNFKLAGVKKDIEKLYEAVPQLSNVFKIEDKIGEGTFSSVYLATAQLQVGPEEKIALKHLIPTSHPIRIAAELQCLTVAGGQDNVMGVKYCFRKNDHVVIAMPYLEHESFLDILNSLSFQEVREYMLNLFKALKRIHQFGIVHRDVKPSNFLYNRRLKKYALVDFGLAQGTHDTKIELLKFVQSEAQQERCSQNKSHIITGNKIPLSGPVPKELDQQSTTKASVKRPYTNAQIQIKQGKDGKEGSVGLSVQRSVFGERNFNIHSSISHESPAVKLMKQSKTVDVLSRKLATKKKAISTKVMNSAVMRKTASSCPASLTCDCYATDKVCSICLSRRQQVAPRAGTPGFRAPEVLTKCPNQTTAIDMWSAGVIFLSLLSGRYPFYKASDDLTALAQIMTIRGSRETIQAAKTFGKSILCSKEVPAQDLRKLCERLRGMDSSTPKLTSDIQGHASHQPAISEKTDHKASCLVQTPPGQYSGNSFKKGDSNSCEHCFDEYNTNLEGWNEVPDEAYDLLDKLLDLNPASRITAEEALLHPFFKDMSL
Chain of Cdc7/ASK (Q9UBU7 whole entry partner): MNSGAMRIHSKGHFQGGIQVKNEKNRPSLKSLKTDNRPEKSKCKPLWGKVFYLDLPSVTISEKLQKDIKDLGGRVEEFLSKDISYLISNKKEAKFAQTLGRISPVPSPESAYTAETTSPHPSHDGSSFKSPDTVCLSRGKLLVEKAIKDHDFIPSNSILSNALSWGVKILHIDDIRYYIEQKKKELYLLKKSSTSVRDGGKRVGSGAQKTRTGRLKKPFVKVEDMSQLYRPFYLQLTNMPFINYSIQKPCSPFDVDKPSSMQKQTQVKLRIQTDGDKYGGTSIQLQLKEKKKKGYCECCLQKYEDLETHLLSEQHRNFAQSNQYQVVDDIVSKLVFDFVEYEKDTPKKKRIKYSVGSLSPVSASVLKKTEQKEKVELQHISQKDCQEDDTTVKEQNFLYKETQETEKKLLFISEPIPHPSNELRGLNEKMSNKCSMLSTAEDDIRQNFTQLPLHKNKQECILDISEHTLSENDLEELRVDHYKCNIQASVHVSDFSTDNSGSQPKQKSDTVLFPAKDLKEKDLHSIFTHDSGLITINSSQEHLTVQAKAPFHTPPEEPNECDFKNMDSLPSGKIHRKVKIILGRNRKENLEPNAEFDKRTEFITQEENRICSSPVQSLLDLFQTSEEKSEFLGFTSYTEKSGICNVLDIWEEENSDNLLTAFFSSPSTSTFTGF
Chain of Cdc7/Dbf4 (O00311 whole entry): as the sequence (O00311 whole entry) above
Chain of Cdc7/Dbf4 (Q9UBU7 whole entry partner): as the sequence (Q9UBU7 whole entry partner) above

Row | Compound | IC50 (Cdc7/Dbf4) [µM] | IC50 (Cdc7/ASK) [µM] | EC50 [1] [µM] | Biomarker Method 1 (pEC50) [1]
1 | CC(C)CN1CCC(c2nc(-c3ccncc3)[nH]c(=O)c2Cl)CC1 [Compound 39, 5-chloro-4-(1-isobutyl-4-piperidyl)-2-(4-pyridyl)-1H-pyrimidin-6-one] | 0.00575 | 0.00832 |  | 
2 | CC(C)CN1CCN(c2nc(-c3ccncc3)[nH]c(=O)c2Cl)CC1 [Compound 82] |  | 0.0316 | 0.977 | 
3 | O=c1[nH]c(-c2ccncc2)nc(N2CCN(CC3CCCCC3)CC2)c1Cl [Compound 85] |  | 0.0479 | 0.891 | 
4 | C[C@@H]1CN(c2nc(-c3ccncc3)[nH]c(=O)c2Cl)CCN1 [Compound 140] |  | 0.00603 | 0.457 | 
5 | C[C@H]1CN(c2nc(-c3ccncc3)[nH]c(=O)c2Cl)CCN1CC(F)(F)F [Compound 181, 5-chloro-4-[(3S)-3-methyl-4-(2,2,2-trifluoroethyl)piperazin-1-yl]-2-(4-pyridyl)-1H-pyrimidin-6-one] |  | 0.0024 | 0.132 | 
6 | O=c1[nH]c(-c2ccncc2)nc(N2CCOC(CCO)C2)c1Cl (stereo not shown) [Compound 94] |  | 0.00692 | 0.759 | 
7 | O=c1[nH]c(-c2ccncc2)nc(N2CCCC(O)C2)c1Cl (stereo not shown) [Compound 167] |  | 0.00813 | 0.832 | 
8 | O=C(N1CCN(c2nc(-c3ccncc3)[nH]c(=O)c2Cl)CC1)C(F)(F)F [Compound 76] |  | 0.00347 | 0.182 | 
9 | CC(C)[C@H]1CN(c2nc(-c3ccncc3)[nH]c(=O)c2Cl)CCN1 [Compound 309] |  | 0.002 | 0.0617 | 
10 | N#CC1CCN(c2nc(-c3ccncc3)[nH]c(=O)c2Cl)CC1 [Compound 153] |  | 0.00178 | 0.126 | 
11 | O=c1[nH]c(-c2ccncc2)nc(N2CCC(O)CC2)c1Cl [Compound 104] |  | 0.0038 | 0.155 | 
12 | O=c1[nH]c(-c2ccncc2)nc(N2CCN(CC(F)(F)F)CC2)c1Cl [Compound 146] |  | 0.00724 | 0.229 | 
13 | C[C@H]1CN(c2nc(-c3ccnc(F)c3)[nH]c(=O)c2Cl)CCN1 [Compound 171] |  | 0.00117 | 0.0724 | 
14 | O=c1[nH]c(-c2ccncc2)nc(N2CCCC(F)C2)c1Cl (stereo not shown) [Compound 131] |  | 0.00813 | 0.112 | 
15 | O=c1[nH]c(-c2ccncc2)nc(N2CCCCCC2)c1Cl [Compound 114] |  | 0.0191 | 1.55 | 
16 | CC(C)CN1CCC(c2nc(-c3ccnc(F)c3)[nH]c(=O)c2Cl)CC1 [Compound 87] |  | 0.00302 | 0.148 | 
17 | O=c1[nH]c(-c2ccncc2)nc(N2CCN(CC3CCCC3)CC2)c1Cl [Compound 84] |  | 0.0234 | 0.589 | 
18 | O=c1[nH]c(-c2ccncc2)nc(N2CCN[C@@H](CO)C2)c1Cl [Compound 129] |  | 0.00209 | 0.871 | 
19 | CC(F)(F)C1CN(c2nc(-c3ccncc3)[nH]c(=O)c2Cl)CCN1 (stereo not shown) [Compound 156] |  | 0.00398 | 0.0661 | 
20 | O=c1[nH]c(-c2ccnc(F)c2)nc(C2CCOCC2)c1Cl [Compound 13, 5-chloro-2-(2-fluoro-pyridin-4-yl)-6-(tetrahydro-pyran-4-yl)-3H-pyrimidin-4-one] | 0.000759 | 0.00123 |  | 
21 | CN1CCN(c2nc(-c3ccncc3)[nH]c(=O)c2Cl)CC1 [Compound 81] |  | 0.00933 | 0.195 | 
22 | O=c1[nH]c(-c2ccncc2)nc(N2CCCC(C(F)(F)F)C2)c1Cl (stereo not shown) [Compound 176] |  | 0.0209 |  | 5.56

Row | Compound | IC50 (Cdc7/Dbf4) [µM] | IC50 (Cdc7/ASK) [µM] | EC50 [1] [µM] | Biomarker Method 1 (pEC50) [1]
23 | C[C@H]1CN(c2nc(-c3ccncc3)[nH]c(=O)c2Cl)CCN1C(=O)C(F)(F)F [Compound 77, 5-chloro-4-[(3S)-3-methyl-4-(2,2,2-trifluoroacetyl)piperazin-1-yl]-2-(4-pyridyl)-1H-pyrimidin-6-one] |  | 0.00295 | 0.0933 | 
24 | O=C(N1CCCN(c2nc(-c3ccncc3)[nH]c(=O)c2Cl)CC1)C(F)(F)F [Compound 144] |  | 0.00933 | 0.589 | 
25 | O=c1[nH]c(-c2ccncc2)nc(N2CCCN(CCO)CC2)c1Cl [Compound 136] |  | 0.02 | 2.09 | 
26 | O=c1[nH]c(-c2ccncc2)nc(N2CCN(c3cccnc3)CC2)c1Cl [Compound 116] |  | 0.0126 | 0.603 | 
27 | CC1(C)CN(c2nc(-c3ccncc3)[nH]c(=O)c2Cl)CCO1 [Compound 121] |  | 0.00562 | 0.117 | 
28 | O=c1[nH]c(-c2ccncc2)nc(N2CCCC(C(F)(F)F)C2)c1Cl (stereo not shown) [Compound 107] |  | 0.00708 |  | 6.44
29 | O=c1[nH]c(-c2ccncc2)nc(N2CCC(CO)CC2)c1Cl [Compound 109] |  | 0.00363 | 0.151 | 
30 | O=c1[nH]c(-c2ccncc2)nc(N2CCN(CCO)CC2)c1Cl [Compound 125] |  | 0.0407 | 0.912 | 
31 | O=c1[nH]c(-c2ccncc2)nc(N2CCOCC2)c1Cl [Compound 89, 5-chloro-4-morpholino-2-(4-pyridyl)-1H-pyrimidin-6-one] |  | 0.00229 | 0.0741 | 
32 | CCN1CCN(c2nc(-c3ccncc3)[nH]c(=O)c2Cl)CC1 [Compound 31] |  | 0.0398 | 0.398 | 
33 | CC(=O)N1CCN(c2nc(-c3ccncc3)[nH]c(=O)c2Cl)C[C@@H]1C [Compound 78] |  | 0.00229 | 0.468 | 
34 | O=c1[nH]c(-c2ccncc2)nc(N2CCNCC2)c1Cl [Compound 416, 5-chloro-4-piperazin-1-yl-2-(4-pyridyl)-1H-pyrimidin-6-one hydrochloride] |  | 0.00195 | 0.11 | 
35 | CC1CCN(c2nc(-c3ccncc3)[nH]c(=O)c2Cl)CC1 [Compound 122] |  | 0.00661 | 0.417 | 
36 | O=c1[nH]c(-c2ccncc2)nc(N2CCOC(C(F)(F)F)C2)c1Cl (stereo not shown) [Compound 159] |  | 0.00661 | 0.209 | 
37 | O=c1[nH]c(-c2ccncc2)nc(N2CC3C(C2)C3(F)F)c1Cl (stereo not shown) [Compound 134] |  | 0.0191 | 0.692 | 
38 | O=c1[nH]c(-c2ccncc2)nc(N2CCNC(c3cccs3)C2)c1Cl (stereo not shown) [Compound 177] |  | 0.00513 | 0.214 | 
39 | CCCN1CCCN(c2nc(-c3ccncc3)[nH]c(=O)c2Cl)CC1 [Compound 143] |  | 0.0214 | 0.407 | 
40 | O=c1[nH]c(-c2ccncc2)nc(N2CCNC3(CCC3)C2)c1Cl [Compound 158] |  | 0.0195 | 1.74 | 
41 | O=c1[nH]c(-c2ccncc2)nc(N2CCC3(CC2)COC3)c1Cl [Compound 151] |  | 0.0347 | 0.501 | 
42 | O=c1[nH]c(-c2ccncc2)nc(N2CCOC(c3ccccc3)C2)c1Cl (stereo not shown) [Compound 91] |  | 0.0661 | 3.16 | 
43 | O=c1[nH]c(-c2ccncc2)nc(N2C[C@H]3C[C@@H]2CN3)c1Cl [Compound 161] | 0.00174 | 0.0316 |  | 
44 | O=c1[nH]c(-c2ccncc2)nc(N2CCNC(c3ccc(Cl)cc3)C2)c1Cl (stereo not shown) [Compound 168] | 0.00191 | 0.00933 |  | 
